From EPA's ToxRefDB 2 come the findings set out here.

Data set [1] has as its system rat. The conditions noted are these: Combined chronic toxicity/carcinogenicity, other, Oral, Feed, dose end: 104 week, group: systemic.
The subject of data set [2] is rat. To be noted: Subchronic oral toxicity in rodents, sprague dawley, Feed, dose end: 90 day, group: systemic.
In a further data set the test system is mouse. To be noted: Carcinogenicity, cd1, Oral, Feed, dose end: 78 week, group: systemic.
The subject of data set [3] is rat. To be noted: Multigenerational reproductive toxicity study, sprague dawley, Oral, Feed, dose end: 2 generation.
Where [4] appears, read: systemic / pathology microscopic / liver / vacuolization.
Setting [5] is: systemic / pathology microscopic / liver / vacuolization + systemic / pathology microscopic / liver / hyperplasia + systemic / pathology ….
The mark [6] stands for this setting: systemic / clinical chemistry / alanine aminotransferase (alt/sgpt) / alanine aminotransferase (alt/sgpt) + systemic / clinical chemistry / ….
The mark [7] stands for this setting: systemic / pathology microscopic / liver / hypertrophy + systemic / pathology microscopic / liver / necrosis.
Where [8] appears, read: systemic / pathology microscopic / liver / hypertrophy + systemic / pathology microscopic / liver / necrosis + systemic / pathology ….
[9] abbreviates: group: offspring, systemic / in life observation / body weight / offspring (pup) weight + systemic / in life observation / body weight / offspring (pup) ….
Setting [10] is: group: parental, systemic / in life observation / body weight / body weight + systemic / in life observation / body weight / body weight gain + systemic / ….

By LOAEL is commonly meant the lowest tested level that showed an adverse finding. As a reminder, the NOAEL is the highest tested level that showed no adverse finding. On to `CCOC(=O)COc1cc(-c2nn(C)c(OC(F)F)c2Cl)c(F)cc1Cl` [Pyraflufen-ethyl], for which the LEL turned out to be 86.7 mg/kg/day in the data set on rat [1] (setting [4]); 456 mg/kg/day in the data set on rat [2] (systemic / organ weight / brain / relative to body weight); 98.3 mg/kg/day in the data set with mouse (setting [7]); 721 mg/kg/day in the data set on rat [3] (setting [9]); 721 mg/kg/day with rat [3] (setting [10]). The LOAEL in the data set on rat [1] (setting [4]) is 86.7 mg/kg/day; in the data set on rat [2] (setting [6]), 1490 mg/kg/day; in the data set on mouse (setting [7]), 98.3 mg/kg/day; in the data set on rat [3] (setting [9]), 721 mg/kg/day; in the data set with rat [3] (setting [10]), 721 mg/kg/day. In addition, the NEL in the data set on rat [1] (setting [5]) came out at 17.2 mg/kg/day; in the data set with rat [2] (setting [6]), 85.6 mg/kg/day; in the data set with mouse (setting [8]), 19.6 mg/kg/day; with rat [3] (setting [9]), 70.8 mg/kg/day; in the data set with rat [3] (setting [10]), 70.8 mg/kg/day. Also, the NOAEL was found to be 17.2 mg/kg/day with rat [1] (setting [5]); 456 mg/kg/day with rat [2] (setting [6]); 19.6 mg/kg/day with mouse (setting [8]); 70.8 mg/kg/day in the data set with rat [3] (setting [9]); 70.8 mg/kg/day in the data set on rat [3] (setting [10]).
